The source of these data is US20240216410A1, “METHODS AND COMPOSITIONS FOR TREATING CANCER THERAPY-INDUCED NEUTROPENIC FEVER AND/OR GVHD” (BOARD OF REGENTS, THE UNIVERSITY OF TEXAS SYSTEM, priority 2021, published 2024).

Data set [1] has as its system murine BT GH2 β-galactosidase, GH33 sialidase, GH29 α-L-fucosidase. Kind of data set: RNA sequencing of stool from allo-HSCT mice: BT PUL expression. Format: in vivo, Bacteroides thetaiotaomicron. The conditions noted are these: day 18, allo-HSCT mice with vs without meropenem. As to the method:
Thus, in some cases, meropenem treatment during GVHD may lead to alterations in the behavior of BT. To evaluate this further, RNA sequencing of stool samples from allo-HSCT mice without and with meropenem treatment was performed. Also examined was the genome of mouse-derived BT isolate MDA-JAX BT001 (FIG. 23), and open reading frames (ORF) were identified, which were then assigned to polysaccharide utilization loci (PUL) using the Polysaccharide-Utilization Loci DataBase (PULDB) (41).
RNA sequencing and analysis. Approximately 30 mg of stool was freshly collected in 700 μL of ice cold QIAZOL® containing 200 μL of 0.1 mm diameter Zirconia Silica beads (11079101z, BioSpec). Samples were bead beaten twice for 2 min with a 30 second interval recovery. Samples were then centrifuged at 12,000 g for 1 min and the supernatant was collected for RNA isolation using the RNeasy mini kit (74104, QIAGEN®). […] RNA quantity and quality was determined using an Agilent 4200 TapeStation system (Agilent). […] The cDNA libraries were sequenced on the […]® MISEQ™ system to produce 1×300 bp single-end reads, resulting in ˜1 million reads per sample. […] The total reads of mouse stool samples were 950923±113406 (mean±standard deviation). […] Aligned mRNA expression changes were calculated using the Mann-Whitney U test in R software version 3.6.0 via RStudio version 1.2.1335. […]

The test system of the next data set is colonic mucus layer. Put plainly: Murine GVHD model: colonic mucus layer thickness (PAS staining). The following applies: day 18; vs untreated GVHD mice and syngeneic mice. Format: in vivo, mice. As to the method: Next, assessed was the impact of meropenem treatment on the dense colonic mucus layer of mice with GVHD.
Allo-HSCT recipient mice were treated with meropenem as in FIG. 15A and with xylose from days 13 to 20 (FIG. 18F). […] Importantly, in vitro, growth of mouse and human-derived BT in carbohydrate-poor media was augmented by xylose (FIG. 23B).
Xylose administration. D-(+)-xylose (X3877, SIGMA-ALDRICH®) was dissolved in phosphate buffer pH 8.0 with meropenem or in water without meropenem and given at a concentration of 0.5% from days 13 to 20 after allo-HSCT.
Histological and immunohistochemistry analysis. […] Pathology scores were quantified by a blinded pathologist. […] Sections were imaged using an APERIO® AT2.

In a further data set the test system is intestinal microbiome. Put plainly: allo-HSCT patients who underwent intestinal microbiome profiling (meropenem-treated vs untreated). The format is in vivo, human. As to the method: Next, the effects of meropenem on the composition of the colonic microbiota of transplanted patients and mice were investigated. Fecal specimens were collected from HSCT patients transplanted from 2014 to 2019 and 44 patients were identified who were treated with allo-HSCT following conditioning with fludarabine and busulfan.
Fecal samples collected at baseline following hospital admission around day −7 as well as on day 14 following allo-HSCT were examined (FIG. 15A). […] A paired differential abundance analysis was then performed, asking which bacterial genera were the most changed from baseline in the two subgroups of patients.
Retrospective study design.
Sequencing of 16S rRNA gene amplicons. Fecal samples from patients and mice were weighed before DNA isolation. In brief, genomic DNA was isolated using the QIAAMP® DNA mini kit (51306, QIAGEN®) according to the manufacturer's protocol that was modified to include an intensive bead-beating lysis step. The V4 region of 16S rRNA gene was amplified by PCR from 100 ng of each of extracted and purified genomic DNA using 515 forward and 806 reverse primer pairs (59). The quality and quantity of the barcoded amplicons were assessed on an Agilent 4200 TapeStation system (Agilent) and QUBIT™ Fluorometer (THERMO FISHER […]™), and libraries were prepared after pooling at equimolar ratios. The final libraries were purified using […]® gel extraction kit (28706X4, QIAGEN®) and sequenced with a 2×250 base pair paired-end protocol on the […]® MISEQ™ platform.
Microbiome data analysis. Sequencing data from paired-end reads were de-multiplexed using QIIME 2 (60). Merging of paired-end reads, dereplicating, and length filtering was performed using VSEARCH 2.17.1 (61). Following de-noising and chimera calling using the unoise3 command (62), unique sequences were taxonomically classified with mothur (63) using the Silva database (64) version 138. Weighted UniFrac distances (65) were determined using QIIME 2, visualized using principal coordinate analysis, and evaluated for statistical significance using permutational multivariate analysis of variance (PERMANOVA) testing. For differential abundance analysis, abundances of sequences belonging to taxonomical groups were included for analysis using the Mann-Whitney U test and adjusted for multiple comparisons using the method of Benjamini and Hochberg. Paired samples were analyzed using the Wilcoxon signed rank test with adjustment for multiple comparisons.

[2] abbreviates: 44 microbiome-profiled patients, meropenem days −10 to 14.

Consider `C[C@@H](O)[C@H]1C(=O)N2C(C(=O)O)=C(S[C@@H]3CN[C@H](C(=O)N(C)C)C3)[C@H](C)[C@H]12` [meropenem], for which, in data set [1], the “expression in murine BT of GH2 β-galactosidase, GH33 sialidase and GH29 α-L-fucosidase” value was “upregulated expression”. In addition, the “colonic mucus layer thickness” value with colonic mucus layer is on record as “significantly thinned colonic mucus layer”. Besides, in the data set with intestinal microbiome (setting [2]), the “Acute GVHD Grade 0, number of patients” value is recorded as 7; the “Acute GVHD Grade 0, percentage of patients” value is reported as “(38%)”; the “Acute GVHD Grade I, number of patients” value was 0; the “Acute GVHD Grade I, percentage of patients” value is “(0%)”. Moreover, in the data set on intestinal microbiome (setting [2]), the “Acute GVHD Grade II, number of patients” value came to 7; the “Acute GVHD Grade II, percentage of patients” value is on record as “(38%)”; the “Acute GVHD Grade III-IV, number of patients” value was found to be 4; the “Acute GVHD Grade III-IV, percentage of patients” value is “(22%)”. Also, the “bacterial genera most changed from baseline (paired differential abundance)” value in the data set on intestinal microbiome (fecal samples pre-HSCT vs day 14) is given as “significant expansion of bacteria from the genus Bacteroides”.
